Literature values, collected in patent publication US10665326B2, “Deep proteome markers of human biological aging and methods of determining a biological aging clock” (INSILICO MEDICINE, INC., priority 2017, dated 2020).

How the values were obtained:
[1] = test system: pre-senescent and senescent cells

Compound | mitogenic response (muscle cells) | killing of pre-senescent and senescent cells [1]
740 Y-P | stimulates a mitogenic response | –
O=c1c(O)c(-c2ccc(O)c(O)c2)oc2cc(O)cc(O)c12 [quercetin] | – | able to kill pre-senescent and senescent cells
Tocotrienols | – | able to kill pre-senescent and senescent cells
